The text below walks through data of PMC2719774 (European journal of pharmaceutics and biopharmaceutics : …, 2009).

A short description of one data set: in vitro. As to conditions: dog, MDCK-MDR1.
The next data set addresses CYP2D6 (Homo sapiens, UniProt P10635). Nature of the data set: In vitro metabolism screening with recombinant CYP2D6. As to conditions: 1 h, 37°C. Type of data set: in vitro ADME.
The target of the next data set is T1, CYP1A1 (Homo sapiens, UniProt P04798).
T1 sequence (P04798 1-512): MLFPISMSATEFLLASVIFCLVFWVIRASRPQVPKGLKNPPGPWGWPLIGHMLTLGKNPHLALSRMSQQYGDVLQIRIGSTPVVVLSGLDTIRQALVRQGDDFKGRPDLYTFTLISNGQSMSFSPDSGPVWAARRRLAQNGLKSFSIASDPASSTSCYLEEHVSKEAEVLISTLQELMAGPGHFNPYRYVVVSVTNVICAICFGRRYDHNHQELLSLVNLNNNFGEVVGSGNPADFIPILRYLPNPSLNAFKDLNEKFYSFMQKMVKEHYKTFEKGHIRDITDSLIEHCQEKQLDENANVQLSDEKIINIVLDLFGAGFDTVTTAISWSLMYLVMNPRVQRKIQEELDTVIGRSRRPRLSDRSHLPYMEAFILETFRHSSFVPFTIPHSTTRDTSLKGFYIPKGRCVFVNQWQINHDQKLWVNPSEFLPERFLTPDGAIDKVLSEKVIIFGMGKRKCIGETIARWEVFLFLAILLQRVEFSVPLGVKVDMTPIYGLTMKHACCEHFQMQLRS
Kind of data set: In vitro metabolism screening with recombinant CYP1A1. Type of data set: in vitro ADME. The conditions noted are these: 1 h, 37°C.

The target of another data set is T2, CYP2C18 (Homo sapiens, UniProt P33260).
T2 sequence (P33260 26-490): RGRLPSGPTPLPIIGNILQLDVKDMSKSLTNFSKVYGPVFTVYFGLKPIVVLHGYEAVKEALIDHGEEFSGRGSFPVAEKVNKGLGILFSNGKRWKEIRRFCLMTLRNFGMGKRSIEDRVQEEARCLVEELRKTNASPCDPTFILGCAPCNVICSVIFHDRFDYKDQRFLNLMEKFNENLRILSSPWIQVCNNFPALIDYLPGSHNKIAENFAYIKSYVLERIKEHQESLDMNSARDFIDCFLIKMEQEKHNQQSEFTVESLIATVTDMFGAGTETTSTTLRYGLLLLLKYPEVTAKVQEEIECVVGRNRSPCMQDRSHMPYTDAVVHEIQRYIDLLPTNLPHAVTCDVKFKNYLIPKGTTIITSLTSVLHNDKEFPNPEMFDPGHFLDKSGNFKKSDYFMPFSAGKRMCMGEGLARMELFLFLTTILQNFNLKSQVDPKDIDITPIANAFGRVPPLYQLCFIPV
Kind of data set: In vitro metabolism screening with recombinant CYP2C18. Type of data set: in vitro ADME. As to conditions: 1 h, 37°C.

The target in another data set is CYP2E1 (Homo sapiens, UniProt P05181). Nature of the data set: In vitro metabolism screening with recombinant CYP2E1. It is filed as in vitro ADME. The conditions noted are these: 1 h, 37°C.
The target of the next data set is T3, UGT2B7 (Homo sapiens, UniProt P16662).
T3 sequence (P16662 24-529): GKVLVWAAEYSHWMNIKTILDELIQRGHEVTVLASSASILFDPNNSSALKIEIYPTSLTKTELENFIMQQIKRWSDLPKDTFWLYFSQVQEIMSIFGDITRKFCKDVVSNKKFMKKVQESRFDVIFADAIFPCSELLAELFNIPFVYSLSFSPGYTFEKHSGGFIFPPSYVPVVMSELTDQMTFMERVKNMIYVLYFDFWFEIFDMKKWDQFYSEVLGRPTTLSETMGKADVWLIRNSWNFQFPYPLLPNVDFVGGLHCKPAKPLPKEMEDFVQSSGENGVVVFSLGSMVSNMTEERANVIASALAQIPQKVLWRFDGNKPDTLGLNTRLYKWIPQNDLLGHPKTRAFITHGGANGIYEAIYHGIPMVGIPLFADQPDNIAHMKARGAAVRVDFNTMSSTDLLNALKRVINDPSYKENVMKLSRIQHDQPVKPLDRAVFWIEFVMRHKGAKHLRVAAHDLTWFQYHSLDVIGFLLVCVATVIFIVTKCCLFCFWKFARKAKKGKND
Nature of the data set: In vitro metabolism screening with UGT2B7 Supersomes. It is filed as in vitro ADME. The conditions noted are these: 37°C.

A short description of data set [1]: Single-dose pharmacokinetics and brain distribution in rats. Type of data set: in vivo, male Sprague Dawley rats. As to conditions: rat; for t1/2 / half-life: 10 mg/kg i.p.
In data set [2] the test system is MDCK-MDR1 cell monolayers. The conditions noted are these: 5 μM, 37°C, PBS; UV-HPLC limit of detection 100 ng/ml.
The conditions of data set [3]: humans ref 13; cited from earlier work.
A further data set concerns P-gp (MDR1). Nature of the data set: in vitro. As to conditions: dog, MDCK-MDR1.
The conditions of data set [4]: rhesus monkeys, plasma, single dose ref 24; cited from earlier work.
The conditions of data set [5]: PET imaging, female baboons ref 25; cited from earlier work.
For a further data set, the target named is recombinant human P-gp (Homo sapiens, UniProt P08183). Kind of data set: P-gp ATPase activity. The conditions noted are these: for Fold Stimulation of P-gp ATPase activity: relative to non treated.
A further data set deals with P-gp. Nature of the data set: in vitro. As to conditions: dog, MDCK-MDR1.
Setting [6] is: male, Sprague Dawley, brain, ip, 10 mg/kg.
Where [7] appears, read: male, Sprague Dawley, plasma, ip, 10 mg/kg.

Structures are written as SMILES. “And” between values parts separate entries of the source, which are not always exact repeats. Equal values may be shown once. Where only a bound is given, the exact number is not on record here.

As a reminder, the Papp is the rate of passage across a membrane or cell layer, normalised by area and donor concentration. Lower therefore signals slow passage. The term Kp denotes tissue or fluid exposure divided by exposure in the circulation. Usually AUC(0-inf) stands for the area under the concentration-time curve extrapolated to infinity. A high value points to high exposure. As usually defined, the AUC(0-t) is exposure summed from dosing to a finite time, without extrapolation to infinity. Lower therefore signals less exposure. By Cmax is commonly meant the peak of the concentration-time curve. The Tmax is the time at which the peak concentration occurs. Usually half-life stands for how long it takes for the measured level to halve. A low value points to fast loss. In general, CL/F refers to the apparent clearance, not corrected for the fraction that reaches the circulation. As usually defined, the Vd/F is the apparent distribution volume after extravascular dosing. Usually Papp B→A stands for the apparent permeability from the basolateral to the apical side of a cell layer. The efflux ratio is a quotient of directional permeabilities that is used to spot active efflux.

Chain of CYP2D6 (P10635 whole entry): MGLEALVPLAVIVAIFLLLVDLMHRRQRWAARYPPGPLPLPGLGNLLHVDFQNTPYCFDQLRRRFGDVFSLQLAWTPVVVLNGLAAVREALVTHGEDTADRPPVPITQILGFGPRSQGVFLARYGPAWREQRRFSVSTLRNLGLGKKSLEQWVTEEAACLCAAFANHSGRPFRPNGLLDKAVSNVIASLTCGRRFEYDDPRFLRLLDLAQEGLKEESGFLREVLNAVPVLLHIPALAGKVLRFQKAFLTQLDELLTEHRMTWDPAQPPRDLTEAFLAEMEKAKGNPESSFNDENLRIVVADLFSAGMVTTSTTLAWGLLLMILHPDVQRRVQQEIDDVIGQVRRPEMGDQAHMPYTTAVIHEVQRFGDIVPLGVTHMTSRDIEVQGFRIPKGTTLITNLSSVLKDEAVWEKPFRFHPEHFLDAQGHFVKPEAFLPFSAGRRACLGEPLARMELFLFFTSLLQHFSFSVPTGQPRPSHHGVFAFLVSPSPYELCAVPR
Chain of recombinant human P-gp (P08183 whole entry): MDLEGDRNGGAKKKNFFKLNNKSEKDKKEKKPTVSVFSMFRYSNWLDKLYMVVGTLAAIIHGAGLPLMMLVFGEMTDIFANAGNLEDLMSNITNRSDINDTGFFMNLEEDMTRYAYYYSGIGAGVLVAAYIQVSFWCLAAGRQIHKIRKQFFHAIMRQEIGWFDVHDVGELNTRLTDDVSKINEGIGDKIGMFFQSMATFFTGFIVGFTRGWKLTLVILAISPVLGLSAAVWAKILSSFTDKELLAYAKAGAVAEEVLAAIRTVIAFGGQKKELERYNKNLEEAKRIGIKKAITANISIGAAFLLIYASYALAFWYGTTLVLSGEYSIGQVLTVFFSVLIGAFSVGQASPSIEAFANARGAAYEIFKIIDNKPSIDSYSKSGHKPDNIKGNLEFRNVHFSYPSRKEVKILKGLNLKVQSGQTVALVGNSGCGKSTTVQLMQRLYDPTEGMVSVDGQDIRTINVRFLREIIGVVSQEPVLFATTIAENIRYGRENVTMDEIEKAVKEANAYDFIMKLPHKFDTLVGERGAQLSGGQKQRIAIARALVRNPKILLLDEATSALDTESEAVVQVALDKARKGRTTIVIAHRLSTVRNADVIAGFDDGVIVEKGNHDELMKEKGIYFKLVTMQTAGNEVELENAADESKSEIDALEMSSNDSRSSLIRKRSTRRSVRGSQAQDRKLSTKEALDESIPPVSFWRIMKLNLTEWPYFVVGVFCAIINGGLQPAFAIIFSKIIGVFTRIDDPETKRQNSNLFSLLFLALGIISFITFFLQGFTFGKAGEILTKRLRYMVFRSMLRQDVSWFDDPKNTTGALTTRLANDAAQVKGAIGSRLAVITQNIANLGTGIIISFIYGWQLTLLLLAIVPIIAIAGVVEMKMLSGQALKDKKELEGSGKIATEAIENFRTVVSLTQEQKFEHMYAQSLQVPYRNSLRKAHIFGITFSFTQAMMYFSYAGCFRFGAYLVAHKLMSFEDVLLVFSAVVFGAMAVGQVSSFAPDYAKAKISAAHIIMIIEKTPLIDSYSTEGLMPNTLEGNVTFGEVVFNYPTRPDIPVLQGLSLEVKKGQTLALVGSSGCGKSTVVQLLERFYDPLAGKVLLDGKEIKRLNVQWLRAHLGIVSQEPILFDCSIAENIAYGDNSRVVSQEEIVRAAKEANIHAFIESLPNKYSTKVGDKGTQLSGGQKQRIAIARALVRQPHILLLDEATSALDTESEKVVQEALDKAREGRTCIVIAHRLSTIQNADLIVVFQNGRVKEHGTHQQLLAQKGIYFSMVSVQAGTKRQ
Chain of CYP2E1 (P05181 whole entry): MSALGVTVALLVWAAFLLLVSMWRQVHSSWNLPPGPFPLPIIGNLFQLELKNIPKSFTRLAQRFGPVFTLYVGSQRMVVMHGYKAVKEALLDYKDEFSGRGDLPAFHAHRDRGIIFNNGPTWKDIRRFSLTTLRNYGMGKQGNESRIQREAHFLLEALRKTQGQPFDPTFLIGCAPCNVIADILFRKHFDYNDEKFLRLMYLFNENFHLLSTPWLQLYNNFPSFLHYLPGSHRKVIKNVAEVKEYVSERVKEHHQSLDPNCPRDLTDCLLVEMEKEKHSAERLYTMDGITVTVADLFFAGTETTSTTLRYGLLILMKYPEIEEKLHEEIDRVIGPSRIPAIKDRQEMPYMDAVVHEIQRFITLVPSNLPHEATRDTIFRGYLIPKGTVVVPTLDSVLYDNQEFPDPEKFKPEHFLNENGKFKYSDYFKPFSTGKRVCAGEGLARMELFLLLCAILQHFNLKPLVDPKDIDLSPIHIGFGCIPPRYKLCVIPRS

For the compound `OC[C@@H](O)[C@@H](O)[C@H](O)[C@H](O)CO` [Mannitol, mannitol], in the data set “in vitro”, the Papp was 3.23 ×10⁻⁶ cm/s.

With `COC(=O)[C@@H]1C[C@H](OC(C)=O)C(=O)[C@H]2[C@@]1(C)CC[C@H]1C(=O)O[C@H](c3ccoc3)C[C@]21C` [Salvinorin A], the “% reduction of initial concentration” value at CYP2D6 (5 μM) was 14.7±0.80% and 14.7(± 0.80) %; on CYP2D6 (50 μM) it was 10(± 1.2) %; at CYP1A1 (5 μM), 31.1±1.20% and 31.1(±1.20) %; at CYP1A1 (50 μM), 5.3(±2) %; on CYP2C18 (5 μM), 20.6(±1.00) %; at CYP2C18 (50 μM) it was 6(±1.2) %. In addition, the “% reduction of initial concentration” value at CYP2E1 (5 μM) is given as 22(±0.80) %; at CYP2E1 (50 μM), 6.4(±1.6) %; at UGT2B7 (5 μM, two hour incubation), 51(± 4.00) %; at UGT2B7 (10 μM, 1 h) it was 18.1(± 5.20) %; on UGT2B7 (50 μM, 1 h), 7(±5.60) %. The t1/2 is 36.1 min in data set [1] (brain) and 75.4 min in data set [1] (plasma). The compound further registered a Kp in data set [1] (male, Sprague Dawley, brain and plasma, ip, 10 mg/kg) of 0.05. In addition, the AUC(0-inf) came to 20.6 ng·h/mL in data set [1] (setting [6]) and 410 ng·h/mL in data set [1] (setting [7]). Besides, the exposure AUC(0-t) in data set [1] (setting [6]) turned out to be 13 ng·h/mL; in [1] (setting [7]), 348 ng·h/mL. In addition, the maximum concentration (Cmax) stood at 23.9 ng/mL in [1] (setting [6]) and 345 ng/mL in data set [1] (setting [7]). Moreover, the Tmax in [1] (setting [6]) was 10 min; in data set [1] (male, Sprague Dawley, plasma and brain, ip, 10 mg/kg), 10 to 15 min; in data set [1] (setting [7]), 15 min. The half-life turned out to be 36 min in data set [1] (male, Sprague Dawley, brain, ip, 10 mg/kg, t1/2, brain) and 75 min in [1] (male, Sprague Dawley, plasma, ip, 10 mg/kg, t1/2, plasma). The apparent clearance CL/F in data set [1] (setting [7]) was 433 mL/min/kg. The k el in data set [1] (setting [7]) was 0.000153 s⁻¹; in [1] (male, Sprague-Dawley, brain, ip, 10 mg/kg) it was 3.19e-05 s⁻¹. Moreover, in data set [1] (male, Sprague-Dawley, plasma, ip, 10 mg/kg), the Vd/F turned out to be 47.1 L/kg. For the same compound, in [2], the “absorptive transport (Papp A→B)” value is given as “not detected”. Moreover, the “duration of hallucinogenic experience” value in data set [3] is recorded as no more than 15 min. Besides, in data set [3], the “time to appearance of hallucinogenic experience” value was “less than 1 min”. The compound also yielded a Papp B→A at 5 μM with P-gp (MDR1) of 40.7 ×10⁻⁶ cm/s. In addition, in [4], the elimination half-life was 56.6 ± 24.8 min. In data set [5], the “time to peak brain uptake after dosing” value is 40 s. For the same compound, the “rate of ATP consumption (P-gp ATPase activity)” value at recombinant human P-gp (2.5 μM) is 50.94 ± 17.87 pmol/μg P-gp/min; at recombinant human P-gp (5 μM), 47.48 ± 3.36 pmol/μg P-gp/min and 47.78 ± 3.36 ^a pmol/μg P-gp/min; on recombinant human P-gp (10 μM) it was 41.14 ± 5.86 pmol/μg P-gp/min and 41.14 ± 5.86 ^b pmol/μg P-gp/min; at recombinant human P-gp (25 μM) it was 31.08 ± 21.18 pmol/μg P-gp/min. The “Fold Stimulation of P-gp ATPase activity” value is 2.39 at recombinant human P-gp (2.5 μM), 2.24 on recombinant human P-gp (5 μM), 1.93 on recombinant human P-gp (10 μM) and 1.46 on recombinant human P-gp (25 μM).

Turning to `CC(=O)O[C@H]1C(=O)[C@@]2(C)[C@H]([C@H](OC(=O)c3ccccc3)[C@]3(O)C[C@H](OC(=O)[C@H](O)[C@@H](NC(=O)c4ccccc4)c4ccccc4)C(C)=C1C3(C)C)[C@]1(OC(C)=O)CO[C@@H]1C[C@@H]2O` [paclitaxel], the efflux ratio in the data set on P-gp turned out to be 15.2.
